“And” between values parts separate entries of the source, which are not always exact repeats. Identical values can stand only once. Values belong to the compound of their own block, whether it stands above or below them.
System: MDA-MB-468 multi-cell spheroids, viability
Test: Anticancer human tumor MDA-MB-468 cell line growth inhibition [IpAb];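 also: spheroids exposed to agents for seven days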;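 as to viability, T/C: 100% = DMSO vehicle control viability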
Settings: for viability, T/C: stronger effect = lower value
Source text: Combinatorial screen of targeted agents with ipatasertib and abemaciclib in multi-cell type tumor spheroids
A high-throughput screen of multi-cell type tumor spheroids was designed to identify active combinations of targeted small molecules and ipatasertib or abemaciclib. Complex spheroids include a stromal component modeled by human endothelial cells (HUVEC) and fibroblasts modeled by human mesenchymal stem cells (MSCs). The concentration ranges selected for each drug and investigational agent were based upon clinically achievable concentrations if the clinical Cmax of the agent was known.
Compounds. The drugs and investigational agents: ipatasertib (NSC767898), abemaciclib(NSC768073), selumetinib (NSC741078), trametinib (758246), adavosertib (NSC754352), everolimus (NSC733504), sapanisertib (NSC764658), vemurafenib (NSC761431), venetoclax (NSC766270), copanlisib (NSC809693), apelisib (NSC765974), palbociblib (NSC758247), vemurafenib (NSC761431), dabrafenib (NSC764134), ravoxertinib (NSC781343), BMS-387032 (NSC767048), sotorasib (NSC818433), talazoparib (NSC767125) and afursertib (NSC778305), were obtained from the National Cancer Institute (NCI) Developmental Therapeutics Program Chemical Repository. The FDA-approved anticancer drug set is available from the NCI Developmental Therapeutics Program. […] The stock solutions were prepared in dimethyl sulfoxide (DMSO, Sigma-Aldrich, St. Louis, MO, cat. D2650) at 800-fold the tested concentration and stored at -70 degrees C prior to their use. All drugs and investigational agents were tested over a range starting from a high concentration at or near the clinical Cmax and decreasing in half-log increments. If the clinical Cmax for an agent had not been determined, the highest concentration tested was 10 microM.
NCI60 Cell Culture. NCI60 cell lines were obtained from the NCI Developmental Therapeutics Program Tumor Repository. For each lot of cells, the Repository performed Applied Biosystems AmpFLSTR Identifiler testing with PCR amplification to confirm consistency with the published Identifier STR profile for each cell line. Cells were kept in continuous culture for no more than 20 passages. The optimal seeding densities for each of the cell lines at each time point assessed were determined prior to performing the concentration response studies. Briefly, the NCI60 human tumor lines were grown as monolayers in RPMI 1640 medium supplemented with 10% FBS and 2 mmol/L L-glutamine.
An additional 9 lines were from the NCI60 cell line panel including MDA-MB-231 breast carcinoma, MDA-MB-468 breast carcinoma, MCF7 breast carcinoma, Hs578T breast carcinoma, MALME-3M melanoma, SK-MEL-2 melanoma, SK-OV-3 ovarian carcinoma, DU-145 prostate carcinoma, PC-3 prostate carcinoma, all cell lines along with major genetic alterations are listed on Table 2. Pooled donor human umbilical vein endothelial cells (HUVEC, Lonza, cat. CC-2519) and human mesenchymal stem cells (hMSC, Lonza, cat. PT-2501) were purchased from Lonza (Walkersville, MD).
PDMR cell lines were grown in complete medium (DC medium): Dulbecco's modified Eagle's medium (DMEM)/F12 supplemented with 5% fetal bovine serum (FBS), 2 mM L-glutamine, 100 U/mL penicillin and 100 µg/ml streptomycin, 0.4 µg/ml hydrocortisone, 10 ng/ml epidermal growth factor (EGF) recombinant human protein, 24 µg/mL adenine, and 0.1 mg/mL primocin. During culture from frozen stock vials, PDMR cells were cultured in the same medium containing 10 µM Y-27632 (see Table 3). The PDCs were cultured in complete DMEM/F12 media without 10 microM Y-27632 dihydrochloride for at least two passages prior to the screen. The pooled donor HUVEC and hMSC were cultured in endothelial cell growth medium 2 (PromoCell, Heidelberg, Germany, cat. C-22011) and mesenchymal stem cell growth medium 2 (PromoCell, cat. C-28009), respectively. For all experiments, HUVEC and hMSC were used at passages </=5.
[…]

Compound: CC1(C)CCC(CN2CCN(c3ccc(C(=O)NS(=O)(=O)c4ccc(NCC5CCOCC5)c([N+](=O)[O-])c4)c(Oc4cnc5[nH]ccc5c4)c3)CC2)=C(c2ccc(Cl)cc2)C1 + CC(C)NCC(C(=O)N1CCN(c2ncnc3c2C(C)CC3O)CC1)c1ccc(Cl)cc1
- IC50 (curve of first compound, second compound 0.1 µM): 4760 nM
- IC50 (curve of first compound, second compound 0.316 µM): 3030 nM
- IC50 (curve of first compound, second compound 1 µM): 1380 nM
- IC50 (curve of first compound, second compound 3.16 µM): < 31.6 nM
- IC50 (curve of first compound, second compound 10 µM): < 31.6 nM
- viability, T/C (second compound 0.1 µM, first compound 0.0316 µM): 109%
- viability, T/C (second compound 0.1 µM, first compound 0.1 µM): 89.5%
- viability, T/C (second compound 0.1 µM, first compound 0.316 µM): 98.3%
- viability, T/C (second compound 0.1 µM, first compound 1 µM): 94.6%
- viability, T/C (second compound 0.1 µM, first compound 3.16 µM): 71.3%
- viability, T/C (second compound 0.1 µM, first compound 10 µM): 11.3%
- viability, T/C (second compound 0.316 µM, first compound 0.0316 µM): 69.8%
- viability, T/C (second compound 0.316 µM, first compound 0.1 µM): 72.2%
- viability, T/C (second compound 0.316 µM, first compound 0.316 µM): 82.4%
- viability, T/C (second compound 0.316 µM, first compound 1 µM): 69.5%
- viability, T/C (second compound 0.316 µM, first compound 3.16 µM): 49.3%
- viability, T/C (second compound 0.316 µM, first compound 10 µM): 7.93%
- viability, T/C (second compound 1 µM, first compound 0.0316 µM): 56.9%
- viability, T/C (second compound 1 µM, first compound 0.1 µM): 63.8%
- viability, T/C (second compound 1 µM, first compound 0.316 µM): 55%
- viability, T/C (second compound 1 µM, first compound 1 µM): 56.6%
- viability, T/C (second compound 1 µM, first compound 3.16 µM): 34.1%
- viability, T/C (second compound 1 µM, first compound 10 µM): 5.02%
- viability, T/C (second compound 3.16 µM, first compound 0.0316 µM): 34.4%
- viability, T/C (second compound 3.16 µM, first compound 0.1 µM): 37.7%
- viability, T/C (second compound 3.16 µM, first compound 0.316 µM): 38.5%
- viability, T/C (second compound 3.16 µM, first compound 1 µM): 36.4%
- viability, T/C (second compound 3.16 µM, first compound 3.16 µM): 26.1%
- viability, T/C (second compound 3.16 µM, first compound 10 µM): 2.19%
- viability, T/C (second compound 10 µM, first compound 0.0316 µM): 17.4%
- viability, T/C (second compound 10 µM, first compound 0.1 µM): 18.9%
- viability, T/C (second compound 10 µM, first compound 0.316 µM): 17.9%
- viability, T/C (second compound 10 µM, first compound 1 µM): 19.5%
- viability, T/C (second compound 10 µM, first compound 3.16 µM): 9.97%
- viability, T/C (second compound 10 µM, first compound 10 µM): 0.99%

- IC50 (curve of compound): 10.4 nM and 12 nM
Compound: CC(C)n1nc(-c2ccc3oc(N)nc3c2)c2c(N)ncnc21
- viability, T/C (compound 0.000316 µM): 99% and 104%
- viability, T/C (compound 0.001 µM): 84.2% and 89.2%
- viability, T/C (compound 0.00316 µM): 74% and 80.1%
- viability, T/C (compound 0.01 µM): 53.6% and 57.9%
- viability, T/C (compound 0.0316 µM): 23.8% and 23.2%
- viability, T/C (compound 0.1 µM): 9.32% and 10.4%
